Experimental data: the NIST ThermoML archive (doi:10.1016/j.jct.2011.11.021)
Numbers after ± are expanded uncertainties.

Test: activity coefficient (dimensionless); of the first substance listed, at infinite dilution; xn = mol fraction of the nth substance listed
Details: Liquid, Chromatography, x1 = 0

SMILES | activity coefficient (318.15 K) | activity coefficient (328.15 K) | activity coefficient (338.15 K) | activity coefficient (348.15 K) | activity coefficient (358.15 K) | activity coefficient (368.15 K)
Cc1ccccc1C [1,2-dimethylbenzene] + COCC[N+]1(C)CCOCC1.O=S(=O)([N-]S(=O)(=O)C(F)(F)F)C(F)(F)F | 2.75 ± 0.19 | 2.71 ± 0.18 | 2.68 ± 0.18 | 2.65 ± 0.18 | 2.61 ± 0.18 | 2.58 ± 0.18
Cc1cccc(C)c1 [1,3-dimethylbenzene] + COCC[N+]1(C)CCOCC1.O=S(=O)([N-]S(=O)(=O)C(F)(F)F)C(F)(F)F | 3.05 ± 0.21 | 3.02 ± 0.21 | 2.99 ± 0.2 | 2.97 ± 0.2 | 2.94 ± 0.2 | 2.92 ± 0.2
Cc1ccc(C)cc1 [1,4-dimethylbenzene] + COCC[N+]1(C)CCOCC1.O=S(=O)([N-]S(=O)(=O)C(F)(F)F)C(F)(F)F | 3.09 ± 0.21 | 3.06 ± 0.21 | 3.03 ± 0.21 | 3 ± 0.2 | 2.98 ± 0.2 | 2.96 ± 0.2
C1COCCO1 [1,4-dioxane] + COCC[N+]1(C)CCOCC1.O=S(=O)([N-]S(=O)(=O)C(F)(F)F)C(F)(F)F | 0.57 ± 0.041 | 0.596 ± 0.042 | 0.615 ± 0.043 | 0.638 ± 0.044 | 0.653 ± 0.045 | 0.674 ± 0.046
C=CCCCCCCCC [1-decene] + COCC[N+]1(C)CCOCC1.O=S(=O)([N-]S(=O)(=O)C(F)(F)F)C(F)(F)F | 87.8 ± 6 | 78.8 ± 5.4 | 72.1 ± 4.9 | 65.7 ± 4.5 | 59.4 ± 4.1 | 54.9 ± 3.8
C=CCCCCC [1-heptene] + COCC[N+]1(C)CCOCC1.O=S(=O)([N-]S(=O)(=O)C(F)(F)F)C(F)(F)F | 24.9 ± 1.7 | 23 ± 1.6 | 21.7 ± 1.5 | 20.3 ± 1.4 | 19 ± 1.3 | 18.1 ± 1.2
C#CCCCCC [1-heptyne] + COCC[N+]1(C)CCOCC1.O=S(=O)([N-]S(=O)(=O)C(F)(F)F)C(F)(F)F | 7.44 ± 0.51 | 7.24 ± 0.49 | 7.09 ± 0.48 | 6.94 ± 0.47 | 6.79 ± 0.46 | 6.65 ± 0.45
C#CCCCC [1-hexyne] + COCC[N+]1(C)CCOCC1.O=S(=O)([N-]S(=O)(=O)C(F)(F)F)C(F)(F)F | 4.88 ± 0.33 | 4.8 ± 0.33 | 4.75 ± 0.32 | 4.7 ± 0.32 | 4.65 ± 0.32 | 4.61 ± 0.31
CCC[N+](=O)[O-] [1-nitropropane] + COCC[N+]1(C)CCOCC1.O=S(=O)([N-]S(=O)(=O)C(F)(F)F)C(F)(F)F |  | 0.791 ± 0.051 | 0.787 ± 0.051 | 0.783 ± 0.051 | 0.78 ± 0.051 | 0.778 ± 0.051
C#CCCCCCC [1-octyne] + COCC[N+]1(C)CCOCC1.O=S(=O)([N-]S(=O)(=O)C(F)(F)F)C(F)(F)F | 11.4 ± 0.8 | 11 ± 0.8 | 10.6 ± 0.7 | 10.3 ± 0.7 | 9.93 ± 0.68 | 9.67 ± 0.66
C=CCCC [1-pentene] + COCC[N+]1(C)CCOCC1.O=S(=O)([N-]S(=O)(=O)C(F)(F)F)C(F)(F)F | 11 ± 0.8 | 10.3 ± 0.7 | 9.79 ± 0.67 | 9.25 ± 0.63 | 8.83 ± 0.6 | 8.35 ± 0.57
CC(C)CC(C)(C)C [2,2,4-trimethylpentane] + COCC[N+]1(C)CCOCC1.O=S(=O)([N-]S(=O)(=O)C(F)(F)F)C(F)(F)F | 55.9 ± 3.8 | 49.5 ± 3.4 | 45 ± 3.1 | 40.8 ± 2.8 | 37.2 ± 2.5 | 34.1 ± 2.3
CCC(C)(C)C [2,2-dimethylbutane] + COCC[N+]1(C)CCOCC1.O=S(=O)([N-]S(=O)(=O)C(F)(F)F)C(F)(F)F | 32.4 ± 2.2 | 28.4 ± 1.9 | 25.7 ± 1.8 | 23.2 ± 1.6 | 21.2 ± 1.4 | 19.5 ± 1.3
